Experimental data published in ChEMBL document CHEMBL4715857, “Structure-based linker exploration: Discovery of 1-ethyl-1H-indole analogs as novel ATX inhibitors” (Bioorg Med Chem, 2020).
pIC50: −log10 of the molar value.

molecular target: Autotaxin (Homo sapiens, UniProt Q13822); assay: Inhibition of glycosylated human ATX using FS-3 as substrate preincubated for 45 mins followed by substrate addition and measured every 1 min for 30 mins by fluorescence microplate reader assay

| Compound | pIC50 |
| --- | --- |
| CCn1cc(C(=O)N/N=C/c2coc3ccccc3c2=O)c2cc(-c3nc(CN4CCOCC4)cs3)ccc21 | 5.14 |
| CCn1cc(NC(=O)NCc2ccc(F)cc2)c2cc(NC(=O)c3ccc(CN4CCC(O)CC4)cc3)ccc21 | 8.64 |
| CCn1cc(C(=O)N/N=C/c2c(O)ccc3ccccc23)c2cc(-c3nc(CN4CCOCC4)cs3)ccc21 | < 5.00 |
| CCn1cc(C(=O)N/N=C/c2ccc(F)cc2Cl)c2cc(-c3nc(CN4CCOCC4)cs3)ccc21 | 5.20 |
| CCn1cc(C(=O)O)c2cc(-c3nc(CN4CCC[C@H]4CO)cs3)ccc21 | 6.23 |
| CCn1cc(C(=O)N/N=C/c2ccc(F)cc2F)c2cc(-c3nc(CN4CCOCC4)cs3)ccc21 | 5.39 |
| CCn1cc(C(=O)N/N=C(\C)c2ccc(OC)cc2)c2cc(-c3nc(CN4CCOCC4)cs3)ccc21 | < 5.00 |
| CCn1cc(NC(=O)NCc2ccc(F)cc2)c2cc(-c3nc(CN(CCO)CCO)cs3)ccc21 | 6.63 |
| CCn1cc(NC(=O)NCc2ccc(F)cc2)c2cc(-c3nc(CN4CCC(O)CC4)cs3)ccc21 | 6.50 |
| CCn1cc(NC(=O)NCc2ccc(F)cc2)c2cc(NC(=O)c3ccc(CN4CCN(CCO)CC4)cc3)ccc21 | 7.00 |
| CCn1cc(C(=O)O)c2cc(-c3nc(CN4CCN(CCO)CC4)cs3)ccc21 | 6.39 |
| CCn1cc(NC(=O)NCc2ccc(F)cc2)c2cc(NC(=O)c3ccc(CN4CCCCC4)cc3)ccc21 | 6.28 |
| CCn1cc(NC(=O)NCc2ccc(F)cc2)c2cc(NC(=O)c3ccc(CN4CCCC4)cc3)ccc21 | 6.55 |
| CCn1cc(C(=O)N/N=C/c2ccc(C(F)(F)F)cc2)c2cc(-c3nc(CN4CCOCC4)cs3)ccc21 | 5.21 |
| CCn1cc(NC(=O)NCc2ccc(F)cc2)c2cc(NC(=O)c3ccc(CN4CCC(C)CC4)cc3)ccc21 | 6.43 |
| CCn1cc(C(=O)O)c2cc(-c3nc(CN4CCCC4)cs3)ccc21 | 6.03 |

| Compound | pIC50 |
| --- | --- |
| CCn1cc(C(=O)N/N=C2\CCc3cc(Br)ccc32)c2cc(-c3nc(CN4CCOCC4)cs3)ccc21 | < 5.00 |
| CCn1cc(NC(=O)NCc2ccc(F)cc2)c2cc(NC(=O)c3ccc(CN4CCOCC4)cc3)ccc21 | 6.96 |
| CCn1cc(NC(=O)NCc2ccc(Cl)cc2)c2cc(-c3nc(CN4CCN(CCO)CC4)cs3)ccc21 | 6.81 |
| CCn1cc(NC(=O)NCc2ccc(Cl)cc2)c2cc(NC(=O)c3ccc(CN4CCCC4)cc3)ccc21 | 6.45 |
| CCn1cc(C(=O)N/N=C2\CCc3cc(OC)c(OC)cc32)c2cc(-c3nc(CN4CCOCC4)cs3)ccc21 | 5.08 |
| CCn1cc(NC(=O)NCc2ccc(Cl)cc2)c2cc(NC(=O)c3ccc(CN4CCOCC4)cc3)ccc21 | 6.97 |
| CCn1cc(NC(=O)NCc2ccc(F)cc2)c2cc(NC(=O)c3ccc(CN4CCN(C)CC4)cc3)ccc21 | 6.72 |
| CCn1cc(C(=O)O)c2cc(-c3nc(CN(CO)CO)cs3)ccc21 | 6.15 |
| CCn1cc(NC(=O)NCc2ccc(F)cc2)c2cc(-c3nc(CN4CCOCC4)cs3)ccc21 | 6.60 |
| CCn1cc(C(=O)N/N=C/c2ccc(F)c(F)c2)c2cc(-c3nc(CN4CCOCC4)cs3)ccc21 | 5.46 |
| CCn1cc(NC(=O)NCc2ccc(Cl)cc2)c2cc(NC(=O)c3ccc(CN4CCC(O)CC4)cc3)ccc21 | 7.88 |
| CCn1cc(C(=O)O)c2cc(-c3nc(CN4CCC(O)CC4)cs3)ccc21 | 6.17 |
| CCn1cc(C(=O)O)c2cc(-c3nc(CN4CCOCC4)cs3)ccc21 | 6.09 |
| CCn1cc(C(=O)O)c2cc(-c3nc(CN4CCN(C)CC4)cs3)ccc21 | 5.89 |
| CCn1cc(C(=O)N/N=C(\C)c2ccc(F)cc2F)c2cc(-c3nc(CN4CCOCC4)cs3)ccc21 | 5.03 |
| CCn1cc(NC(=O)NCc2ccc(Cl)cc2)c2cc(-c3nc(CN4CCN(C)CC4)cs3)ccc21 | 6.70 |
